Reference: paper PMC8388125, “Kinetic and Structural Characterization of the Self-Labeling Protein Tags HaloTag7, SNAP-tag, and CLIP-tag” (Biochemistry, 2021)

How the values were obtained:
[1] = molecular target: T1, HaloTag7 (HT7) (Rhodococcus sp., UniProt P59336, A155T/A167V/A224E/C128F/C176G/D78G/E160K/E257K/G292T/H272N/K175M/K195N/L47V/L88M/N227D/P291S/S2A/S58T/T264A/V172T/Y273L/Y87F); experiment: HT7 competitive labeling kinetics against CA-Alexa488; assay type: biochemical; settings: HT7, nonfluorescent substrates, competition with CA-Alexa488, 37 °C
T1 construct: made in house; host or cells: E. coli BL21(DE3)-pLysS
Experimental: Competitive kinetics were measured by recording FP over time using a microplate reader (Spark20M, Tecan). The final concentrations of CA-Alexa488 (50 nM) and HT7 protein (200 nM) remained constant with varying concentrations of nonfluorescent substrates (0–1 μM) in activity buffer supplemented with 0.5 g/L BSA. Assays were performed in black nonbinding flat bottom 96-well plates with a final reaction volume of 200 μL. Labeling reactions were started by adding the HT7 protein to wells containing CA-Alexa488 and nonfluorescent substrates using an electronic 96-channel pipettor (Integra Bioscience Corp., Hudson, NH). The FP of free CA-Alexa488 was measured to obtain a baseline.
(§1) Data were fitted to a simplified kinetic competition model (eqs 19 and 20) described by differential eqs 21–25 using DynaFit. The dead time of the measurements and baseline FP value were put in as fixed parameters. Standard deviations (normal distribution verified) and confidence intervals of fitted parameters were estimated with the Monte Carlo method with standard settings (N = 1000, 5% worst fits discarded). [drawing 19] 19 [drawing 20] 20 where P is the SLP protein, S is the fluorescent SLP substrate, I is the nonfluorescent SLP substrate (inhibitor), PS is the protein–fluorescent substrate conjugate, and PI is the protein–nonfluorescent substrate conjugate. [drawing 21] 21 [drawing 22] 22 [drawing 23] 23 [drawing 24] 24 [drawing 25] 25

[2] = molecular target: T2, SNAP-tag (SNAP) (Homo sapiens, UniProt P16455, A127T/A154D/C150Q/C62A/G131K/G132T/G153L/K125A/K32I/L33F/M134L/N157G/Q115S/Q116H/R128A/R135S/S151G/S152D/S159E); experiment: SNAP competitive labeling kinetics against BG-Alexa488; assay type: biochemical; settings: nonfluorescent substrates, competition with BG-Alexa488
T2 construct: made in house; host or cells: E. coli BL21(DE3)-pLysS
T2 sequence (P16455 1-182 K32I/L33F/C62A/Q115S/Q116H/K125A/A127T/R128A/G131K/G132T/M134L/R135S/C150Q/S151G/S152D/G153L/A154D/N157G/S159E limits assumed): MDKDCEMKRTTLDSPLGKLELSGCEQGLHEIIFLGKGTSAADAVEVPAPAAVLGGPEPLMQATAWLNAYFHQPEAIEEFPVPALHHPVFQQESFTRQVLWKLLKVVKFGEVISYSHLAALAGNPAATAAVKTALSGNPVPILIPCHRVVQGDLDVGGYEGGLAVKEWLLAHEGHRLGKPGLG
Experimental: Competitive kinetics were measured by recording FP over time using a microplate reader in a manner analogous to that for HT7 competition kinetics described above using 100 nM BG-Alexa488 as the fluorescent substrate in SNAP-FP buffer.
as §1

[3] = molecular target: T2, SNAP-tag (SNAP); experiment: SNAP labeling kinetics via microplate reader (FP over time); assay type: biochemical; settings: SNAP, plate reader
Experimental: Labeling kinetics of SNAP and CLIP substrates were measured by recording FP over time using a microplate reader in a manner analogous to that of HT7 labeling kinetics described above with the following changes. The fluorescent substrate concentration was fixed to 20 nM, and protein concentrations were varied from 15 to 900 nM. Measurements were performed in SNAP-FP buffer.
Kinetic data from microplate reader assays were fitted to a simplified kinetic model (eq 13) described by differential eqs 14–16 using DynaFit. The dead time of the measurements and baseline FP value were put in as fixed parameters. Standard deviations (normal distribution verified) and confidence intervals of fitted parameters were estimated with the Monte Carlo method with standard settings (N = 1000, 5% worst fits discarded). In the case of BG, CP, and BC kinetics, the substrate concentration was fitted by DynaFit to rule out quantification errors of the BG, CP, or BC fluorophores. Accurate fitting of the concentration was ensured by including conditions under which protein is limiting and no maximum FP value was reached.

[4] = molecular target: T1, HaloTag7 (HT7); experiment: HT7 labeling kinetics via stopped flow (fluorescence anisotropy); assay type: biochemical; settings: for k2 (± S.D.): HT7, stopped flow, model 2
Experimental: Labeling kinetics of HT7 with CA-TMR, CA-JF549, CA-CPY, CA-LIVE580, and CA-JF669 and labeling kinetics of HOB with CA-TMR were measured by recording fluorescence anisotropy changes over time using a BioLogic SFM-400 stopped-flow instrument (BioLogic Science Instruments, Claix, France) in a single-mixing configuration at 37 °C. HT7 protein and substrates in activity buffer were mixed in a 1:1 stoichiometry to reach a recordable speed for these fast reactions and to increase the information content of the traces. Concentrations were varied from 0.125 to 1 μM. The anisotropy of the free substrate was measured to obtain a baseline.
Kinetic stopped-flow data were preprocessed using a custom R script.[36],[37] Recorded pretrigger time points were removed, and time points were adjusted to start at time zero. Values from replicates were averaged. The anisotropy of the free dye was calculated by averaging anisotropy values of the baseline measurements. Preprocessed data were fitted to a kinetic model (eqs 5 and 6) described by differential eqs 7–10 using the DynaFit software.[38] The anisotropy of the free dye and the mixing delay of the stopped-flow machine were set as fixed offset and delay parameters in DynaFit. It was assumed that the protein substrate complex and the reacted product are contributing equally to the anisotropy signal. […] Standard deviations (normal distribution verified) and confidence intervals of fitted parameters were estimated with the Monte Carlo method[39] with standard settings (N = 1000, 5% worst fits discarded). In the case of SNAP kinetics with BG-TMR, the substrate concentration was fitted by DynaFit to rule out quantification errors of the BG-quenched fluorophore. Accurate fitting of the concentration was ensured by including conditions in which protein is limiting and no maximum FP value was reached.

[5] = molecular target: T3, HT7^D106A (Rhodococcus sp., UniProt P59336, A155T/A167V/A224E/C128F/C176G/D106A/D78G/E160K/E257K/G292T/H272N/K175M/K195N/L47V/L88M/N227D/P291S/S2A/S58T/T264A/V172T/Y273L/Y87F); experiment: Affinity of HT7^D106A for CA substrates by fluorescence polarization; assay type: binding
T3 construct: made in house; host or cells: E. coli BL21(DE3)-pLysS
Experimental: Binding affinities of HT7^D106A or HOB^D106A for chloroalkane (CA) substrates were determined by fluorescence polarization (FP, eq 1) measurements using a microplate reader (Spark20M, Tecan Group AG, Männedorf, Switzerland). The fluorescent substrates (10 nM) were titrated against different protein concentrations (0–250 μM) in activity buffer supplemented with 0.5 g/L bovine serum albumin (BSA). Assays were performed in black low-volume nonbinding 384-well plates (Corning Inc., Corning, NY) with a final volume of 20 μL. Obtained FP values were averaged and fitted to a single-site binding model (eq 2) to estimate Kd values for each fluorescent substrate. The FP value of each dye fully reacted with the native HT7 was used to improve fitting of the upper plateau of the curves by adding an extra data point at a protein concentration of 0.1 M. [drawing 1] 1 where FP is the fluorescence polarization, I∥ is the fluorescence intensity parallel to the excitation light polarization, I⊥ is the fluorescence intensity perpendicular to the excitation light polarization, and G is the grating factor (G = I∥/I⊥). [drawing 2] 2 where FPmin is the fluorescence polarization of the free fluorophore (lower plateau), FPmax is the maximal fluorescence polarization of fully bound fluorophore (upper plateau), Kd is the dissociation constant, and [protein] is the protein concentration.
Free binding energies were calculated from Kd values according to eq 4: [drawing 4] 4 where ΔG is the free binding energy, R is the universal gas constant, T is the temperature, and Kd is the dissociation constant.

T1 sequence (P59336 other isoform, or with tags, fused parts or gaps with the stated changes): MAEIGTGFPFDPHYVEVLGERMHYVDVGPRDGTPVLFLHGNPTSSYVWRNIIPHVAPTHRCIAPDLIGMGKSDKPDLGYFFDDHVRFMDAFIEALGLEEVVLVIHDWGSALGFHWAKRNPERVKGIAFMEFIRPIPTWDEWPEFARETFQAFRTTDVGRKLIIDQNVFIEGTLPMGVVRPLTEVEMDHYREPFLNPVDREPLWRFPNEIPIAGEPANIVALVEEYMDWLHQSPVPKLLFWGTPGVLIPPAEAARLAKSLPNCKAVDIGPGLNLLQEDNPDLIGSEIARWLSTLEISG
T3 sequence (P59336 other isoform, or with tags, fused parts or gaps with the stated changes): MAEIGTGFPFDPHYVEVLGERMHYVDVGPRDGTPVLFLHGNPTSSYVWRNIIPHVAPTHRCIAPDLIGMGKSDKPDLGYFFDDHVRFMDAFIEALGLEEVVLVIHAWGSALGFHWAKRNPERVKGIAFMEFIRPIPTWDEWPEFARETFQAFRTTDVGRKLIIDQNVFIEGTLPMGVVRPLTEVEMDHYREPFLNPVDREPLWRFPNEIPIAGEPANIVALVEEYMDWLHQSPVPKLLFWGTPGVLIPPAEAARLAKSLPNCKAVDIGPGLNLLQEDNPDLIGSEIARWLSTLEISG

| SMILES | kapp (value ± standard deviation) [2] | also measured |
| --- | --- | --- |
| Cc1nnc(-c2ccc(CC(=O)NCCOCCOCCCCCCCl)cc2)nn1 [CA-Tz] |  | kapp (value ± standard deviation) [1]: (3.13 ± 0.03) × 10^4 M^–1 s^–1 |
| Nc1nc(OCc2ccc(CNC(=O)OC[C@@H]3[C@@H]4CCC#CCC[C@@H]43)cc2)c2nc[nH]c2n1 [BG-BCN] | (3.88 ± 0.07) × 10^4 M^–1 s^–1 |  |
| [N-]=[N+]=Nc1ccc(C(=O)NCc2ccc(COc3cc(Cl)nc(N)n3)cc2)cc1 [CP-PhN3] | (2.91 ± 0.40) × 10^3 M^–1 s^–1 |  |
| C=Cc1ccc(C(=O)NCc2ccc(COc3cc(Cl)nc(N)n3)cc2)cc1 [CP-Vbn] | (5.50 ± 0.45) × 10^3 M^–1 s^–1 |  |
| Nc1nc(Cl)cc(OCc2ccc(CNC(=O)C3CC4C=CC3C4)cc2)n1 (centres unmarked) [CP-Nor1] | (1.77 ± 0.04) × 10^4 M^–1 s^–1 |  |
| Cc1nnc(-c2ccc(CC(=O)NCc3ccc(COc4nc(N)nc5[nH]cnc45)cc3)cc2)nn1 [BG-Tz] | (3.94 ± 0.08) × 10^4 M^–1 s^–1 |  |
| [N-]=[N+]=NCC(=O)NCCOCCOCCCCCCCl [CA-N3] |  | kapp (value ± standard deviation) [1]: (6.00 ± 0.06) × 10^3 M^–1 s^–1 |
| O=C(NCCOCCOCCCCCCCl)OC1C#CCCCCC1 (centres unmarked) [CA-SCO] |  | kapp (value ± standard deviation) [1]: (2.52 ± 0.05) × 10^5 M^–1 s^–1 |
| CN(C)c1ccc2c(c1)C(C)(C)C1=CC(=[N+](C)C)C=CC1=C2c1cc(C(=O)NCc2ccc(COc3cc(Cl)nc(N)n3)cc2)ccc1C(=O)[O-] [CP-CPY] |  | kapp (value ± standard deviation) ([3]; third kinetic model with slow aging event (*)): (1.59 ± 0.01) × 10^4 ^* M^–1 s^–1 |
| CC(=O)NCc1ccc(COc2nc(N)nc3[nH]cnc23)cc1 [BG-Ac] | (1.48 ± 0.05) × 10^4 M^–1 s^–1 |  |
| Nc1nc(Cl)cc(OCc2ccc(CNC(=O)OC[C@@H]3[C@@H]4CCC#CCC[C@@H]43)cc2)n1 [CP-BCN] | (3.34 ± 0.31) × 10^3 M^–1 s^–1 |  |
| Nc1nc(OCc2ccc(CNC(=O)C3CC4C=CC3C4)cc2)c2nc[nH]c2n1 (centres unmarked) [BG-Nor1] | (7.34 ± 0.01) × 10^4 M^–1 s^–1 |  |
| [N-]=[N+]=NCC(=O)NCc1ccc(COc2nc(N)nc3[nH]cnc23)cc1 [BG-N3] | (3.70 ± 0.09) × 10^4 M^–1 s^–1 |  |
| [N-]=[N+]=Nc1ccc(C(=O)NCCOCCOCCCCCCCl)cc1 [CA-PhN3] |  | kapp (value ± standard deviation) [1]: (2.14 ± 0.02) × 10^4 M^–1 s^–1 |
| C=Cc1ccc(C(=O)NCc2ccc(COc3nc(N)nc4[nH]cnc34)cc2)cc1 [BG-Vbn] | (3.84 ± 0.07) × 10^4 M^–1 s^–1 |  |
| O=C(NCCOCCOCCCCCCCl)C1CC2C=CC1C2 (centres unmarked) [CA-Nor1] |  | kapp (value ± standard deviation) [1]: (6.68 ± 0.06) × 10^3 M^–1 s^–1 |
| CN(CCCC(=O)NCCOCCOCCOCCNC(=O)CCCC[C@H]1SC[C@H]2NC(=O)N[C@H]21)c1ccc2c(-c3cc(C(=O)NCCOCCOCCCCCCCl)ccc3C(=O)[O-])c3ccc(=[N+](C)C)cc-3oc2c1 [CA-TMR-biotin] |  | fold increase in labeling kinetics relative to CA-PEG-biotin ([4]; HT7): > 500 fold; k2 (± S.D.) [4]: 8.24 (± 0.28) s-1 |
| C[Si]1(C)C2=CC(=[N+]3CCC3)C=CC2=C(c2c(F)c(C(=O)NCCOCCOCCCCCCCl)c(F)c(F)c2C(=O)[O-])c2ccc(N3CCC3)cc21 [CA-JF669] |  | k2 (± S.D.) [4]: 6.94 (± 0.47) s-1 |
| O=C(CC1CC2C=CC1C2)NCCOCCOCCCCCCCl (centres unmarked) [CA-Nor2] |  | kapp (value ± standard deviation) [1]: (6.15 ± 0.07) × 10^3 M^–1 s^–1 |
| CN(C)c1ccc2c(-c3ccc(C(=O)NCCOCCOCCCCCCCl)cc3C(=O)[O-])c3ccc(=[N+](C)C)cc-3oc2c1 [CA-5-TMR] |  | Kd [5]: 39.4 µM |
| [N-]=[N+]=NCC(=O)NCc1ccc(COc2cc(Cl)nc(N)n2)cc1 [CP-N3] | (6.36 ± 0.41) × 10^3 M^–1 s^–1 |  |
| [N-]=[N+]=Nc1ccc(C(=O)NCc2ccc(COc3nc(N)nc4[nH]cnc34)cc2)cc1 [BG-PhN3] | (4.78 ± 0.09) × 10^4 M^–1 s^–1 |  |
| Nc1nc(OCc2ccc(CNC(=O)OC3C#CCCCCC3)cc2)c2nc[nH]c2n1 (centres unmarked) [BG-SCO] | (3.75 ± 0.06) × 10^4 M^–1 s^–1 |  |
| CN(C)c1ccc2c(c1)C(C)(C)C1=CC(=[N+](C)C)C=CC1=C2c1cc(C(=O)NCc2ccc(COc3nc(N)nc4[nH]cnc34)cc2)ccc1C(=O)[O-] [BG-CPY] |  | kapp (value ± standard deviation) ([3]; kinetic model 1): (2.17 ± 0.01) × 10^5 M^–1 s^–1 |
| C=Cc1ccc(C(=O)NCCOCCOCCCCCCCl)cc1 [CA-Vbn] |  | kapp (value ± standard deviation) [1]: (8.68 ± 0.07) × 10^3 M^–1 s^–1 |
| Nc1nc(OCc2ccccc2)c2nc[nH]c2n1 [BG, benzylguanine] | (1.87 ± 0.05) × 10^4 M^–1 s^–1 |  |
| Nc1nc(Cl)cc(OCc2ccc(CNC(=O)OC3C#CCCCCC3)cc2)n1 (centres unmarked) [CP-SCO] | (4.22 ± 0.61) × 10^3 M^–1 s^–1 |  |
| O=C(NCCOCCOCCCCCCCl)OC[C@@H]1[C@@H]2CCC#CCC[C@@H]21 [CA-BCN] |  | kapp (value ± standard deviation) [1]: (2.04 ± 0.03) × 10^5 M^–1 s^–1 |
